Laboratory results as given in patent US20260165988A1, “PHARMACEUTICAL COMPOSITION FOR PREVENTING OR TREATING HEARING LOSS COMPRISING AMMONIUM LACTATE AS ACTIVE INGREDIENT” (KOREA UNIVERSITY RESEARCH AND BUSINESS FOUNDATION, priority 2022, published 2026).

System: hair cells in the lateral line of zebrafish
Test: Analysis of hair cells in zebrafish larvae: protection against gentamicin-induced hair cell damage
Assay type: in vivo
Description: Zebrafish larvae (Wild type, Brn3c: EGFP, etc.) were cultured in the breeding room of our research institute. Each larva was cultured in embryo medium (15 mM NaCl, 0.5 mM KCl, 1 mM CaCl2, 1 mM MgSO4, 0.15 mM KH2PO4, 0.05 mM […], and 0.7 mM NaHCO3).
Gentamicin, an ototoxicity-inducing substance, was administered to zebrafish 5 days after fertilization, and the concentration of […] (LC 50) that induces 50% damage to hair cells in the lateral line of zebrafish as well as the time were determined. In the study results, 50 μM gentamicin was chosen since approximately 50% of the hair cells were damaged when administered for 1 hour. The effect was observed when 10 μM, 100 μM, 500 μM, and 1000 μM ammonium lactate were co-administered with 50 μM gentamicin for 1 hour.
There were four sites in hair cells of zebrafish, including orbits (SO1 and SO2), ear (O1), and larynx (OC1), and the number of hair cells was analyzed using a microscope (fluorescence microscope, confocal microscope, etc.). The effects of candidate substances capable of suppressing damage to hair cells caused by gentamicin were compared and analyzed by administering the candidate substances to zebrafish larvae at different concentrations.
To verify the protective effect of ammonium lactate on hair cells in zebrafish, ammonium lactate and gentamicin were co-administered to zebrafish, and the viability of hair cells was compared with that of the control group.

CC(O)C(=O)O.N (centres unmarked) [ammonium lactate]
viability of hair cells (trend) (10 μM, 100 μM, 500 μM and 1000 μM ammonium lactate co-administered with 50 μM gentamicin): increased in a concentration-dependent manner | increase in the viability of hair cells (100 μM ammonium lactate + 50 μM gentamicin): approximately 10% | number of hair cells (100 μM ammonium lactate co-administered with 50 μM gentamicin for 1 hour, gentamicin only 26): 28 | increase in the viability of hair cells (500 μM ammonium lactate + 50 μM gentamicin): approximately 10% | number of hair cells (500 μM ammonium lactate co-administered with 50 μM gentamicin for 1 hour, gentamicin only 26): 29 | increase in the viability of hair cells (1000 μM ammonium lactate + 50 μM gentamicin): ≥ 60% | number of hair cells (1000 μM ammonium lactate co-administered with 50 μM gentamicin for 1 hour, gentamicin only 26): 42 | protective effect on hair cells (conclusion) (zebrafish, gentamicin-induced damage): has a protective effect on hair cells

gentamicin [reference compound]
hair cells damaged (50 μM gentamicin administered for 1 hour, zebrafish 5 days after fertilization): approximately 50% | decrease in the viability of hair cells (50 μM gentamicin only vs untreated control): 50% | number of hair cells (50 μM gentamicin only, no ammonium lactate, untreated control 53): 26
